Results taken from patent publication US20250214978A1, “AT2R AGONIST” (WUHAN HUMANWELL INNOVATIVE DRUG RESEARCH AND DEVELOPMENT …, priority 2022, published 2025).

biological target: AT2R (Homo sapiens (Human), UniProt P50052); assay: Binding assay of compounds to AT2R (Tag-lite HTRF ligand binding kit); conditions: 1 hour incubation at room temperature
Experimental: The assay was performed in accordance with the instruction manual of Angiotensin AT2 Receptor Ligand Binding Assay Kit (#C1TT1AT2, Cisbio). First, a compound stock solution (10 mM) was diluted in a gradient at a 5× dilution ratio (including 10 concentrations, each with two replicates). 160 nL of compounds at different concentrations was added to a 384-well plate. 40 μL of 1×TLB was added to each well, and the mixture was shaken at room temperature for 15 minutes. 15 mL centrifuge tube added with 5 mL of 1×TLB was prepared in advance. The frozen labeled cells were thawed in a water bath at 37° C. (for 1 to 2 minutes), and the thawed cells were quickly transferred to the above 15 mL centrifuge tube. The mixture was mixed well and centrifuged at 1,000 g at room temperature for 5 minutes. The supernatant was removed, and the cells were resuspended by adding 2.7 mL 1×TLB. A new 384-well plate was taken, and 10 μL of mixed cells were added into the corresponding wells according to the assay design. 5 μL of 4× compound solution and 5 μL of 4× Tag-lite red fluorescent labeled ligand were added to each well. After incubation at room temperature for 1 hour, data were read using EnVision with an HTRF mode. The excitation light intensities at 665 nM and 615 nM in each well were read respectively, and the ratio was calculated (Ratio=A665nMIB615 nM). The IC50 value was calculated by means of GraphPad Prism8 software, where X represents logarithmic value of compound concentration; and Y represents ratio of A665 nM/B615 nM.

Sequence of AT2R (P50052 whole entry): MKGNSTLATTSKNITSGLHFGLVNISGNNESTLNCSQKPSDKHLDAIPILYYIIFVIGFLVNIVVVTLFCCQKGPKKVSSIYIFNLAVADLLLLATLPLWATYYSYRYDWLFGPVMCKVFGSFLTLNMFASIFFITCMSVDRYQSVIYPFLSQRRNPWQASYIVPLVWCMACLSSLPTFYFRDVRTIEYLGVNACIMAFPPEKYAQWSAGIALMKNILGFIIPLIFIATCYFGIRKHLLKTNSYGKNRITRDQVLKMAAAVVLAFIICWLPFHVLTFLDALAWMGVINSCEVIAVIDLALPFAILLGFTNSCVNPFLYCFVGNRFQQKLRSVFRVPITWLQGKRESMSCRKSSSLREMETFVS

Q: With `CCCCOC(=O)NS(=O)(=O)c1sc(CC(C)C)cc1-c1ccc(Cn2ccnc2)cc1C` [Compound I-1, Butyl ((3-(4-((1H-imidazol-1-yl)methyl)-2-methylphenyl)-5-isobutylthiophen-2-yl)sulfonyl)carbamate] as the compound, how does the IC50 read?
A: The IC50 was 4.28 nM.

Q: `COC(=O)NS(=O)(=O)c1sc(CC(C)C)cc1-c1ccc(Cn2ccnc2C)cc1C#N` [Compound I-10, Methyl (3-(2-cyano-4-((2-methyl-1H-imidazol-1-yl)methyl)phenyl)-5-isobutylthiophen-2-yl)sulfonylcarbamate] was tested. Which IC50 did it give?
A: Its IC50 is 2.15 nM.

Q: Which IC50 does the source give for `CCCOC(=O)NS(=O)(=O)c1sc(CC(C)C)c(C)c1-c1ccc(Cn2ccnc2C)cc1` [Compound I-29, Propyl ((5-isobutyl-4-methyl-3-(4-((2-methyl-1H-imidazol-1-yl)methyl)phenyl)thiophen-2-yl)sulfonyl)carbamate] here?
A: The IC50 was 4.5 nM.

Q: How did the IC50 turn out when `Cc1cc(-c2cc(CC(C)C)sc2S(=O)(=O)NC(=O)NCCO)ccc1Cn1ccnc1C` [Compound I-23, N-((2-hydroxyethyl)carbamoyl)-5-isobutyl-3-(3-methyl-4-((2-methyl-1H-imidazol-1-yl)methyl)phenyl)thiophene-2-sulfonamide] was run?
A: The IC50 was 11.3 nM.

Q: For `CCCCOC(=O)NS(=O)(=O)c1sc(CC(C)C)cc1-c1ccc(Cn2ccnc2)cc1C#N` [Compound I-3, Butyl ((3-(4-((1H-imidazol-1-yl)methyl)-2-cyanophenyl)-5-isobutylthiophen-2-yl)sulfonyl)carbamate], which IC50 is on record?
A: The IC50 was 3.95 nM.

Q: Which IC50 does the source give for `Cc1nccn1Cc1ccc(-c2cc(CC(C)C)sc2S(=O)(=O)NC(=O)NCCC(F)(F)F)c(C#N)c1` [Compound I-18, 3-(2-cyano-4-((2-methyl-1H-imidazol-1-yl)methyl)phenyl)-5-isobutyl-N-((3,3,3-trifluoropropyl)carbamoyl)thiophene-2-sulfonamide] here?
A: The IC50 was 1.63 nM.

Q: How did the IC50 turn out when `CCCCOC(=O)NS(=O)(=O)c1sc(CC(C)C)cc1-c1ccc(C(C)n2ccnc2)cc1` (stereo not shown) [Compound I-7, Butyl ((3-(4-(1-(1H-imidazol-1-yl)ethyl)phenyl)-5-isobutylthiophen-2-yl)sulfonyl)carbamate] was run?
A: The IC50 was 3.8 nM.

Q: For `CCCCOC(=O)NS(=O)(=O)c1sc(CC(C)C)cc1-c1ccc(Cn2ccnc2C)cc1C` [Compound I-36, Butyl ((5-isobutyl-3-(2-methyl-4-((2-methyl-1H-imidazol-1-yl)methyl)phenyl)thiophen-2-yl)sulfonyl)carbamate], which IC50 is on record?
A: The IC50 was 2.39 nM.

Q: How did the IC50 turn out when `COC(=O)NS(=O)(=O)c1sc(CC(C)C)c(C)c1-c1ccc(Cn2ccnc2C(C)(C)C)cc1` [Compound I-26, Methyl ((3-(4-((2-(tert-butyl)-1H-imidazol-1-yl)methyl)phenyl)-5-isobutyl-4-methylthiophen-2-yl)sulfonyl)carbamate] was run?
A: The IC50 was 3.76 nM.

Q: How did the IC50 turn out when `CCOC(=O)NS(=O)(=O)c1sc(CC(C)C)c(C)c1-c1ccc(Cn2ccnc2C)cc1` [Compound I-28, Ethyl ((5-isobutyl-4-methyl-3-(4-((2-methyl-1H-imidazol-1-yl)methyl)phenyl)thiophen-2-yl)sulfonyl)carbamate] was run?
A: The IC50 was 4.06 nM.

Q: With `CCCCOC(=O)NS(=O)(=O)c1sc(CC(C)C)c(C)c1-c1ccc(Cn2ccnc2)cc1` [Compound I-8, Butyl ((3-(4-((1H-imidazol-1-yl)methyl)phenyl)-5-isobutyl-4-methylthiophen-2-yl)sulfonyl)carbamate] as the compound, how does the IC50 read?
A: The IC50 was 4.4 nM.

Q: Which IC50 does the source give for `COC(=O)NS(=O)(=O)c1sc(CC(C)C)cc1-c1ccc(Cn2ccnc2C(C)C)c(C#N)c1` [Compound I-27, Methyl ((3-(3-cyano-4-((2-isopropyl-1H-imidazol-1-yl)methyl)phenyl)-5-isobutylthiophen-2-yl)sulfonyl)carbamate] here?
A: Its IC50 is 3.35 nM.

Q: With `CCCCOC(=O)NS(=O)(=O)c1sc(CC(C)C)cc1-c1ccc(Cn2ccnc2)c(C)c1` [Compound I-2, Butyl ((3-(4-((1H-imidazol-1-yl)methyl)-3-methylphenyl)-5-isobutylthiophen-2-yl)sulfonyl)carbamate] as the compound, how does the IC50 read?
A: Its IC50 is 3.32 nM.

Q: For `CCCCOC(=O)NS(=O)(=O)c1sc(CC(C)C)cc1-c1ccc(Cn2ccnc2)c(C#N)c1` [Compound I-4, Butyl ((3-(4-((1H-imidazol-1-yl)methyl)-3-cyanophenyl)-5-isobutylthiophen-2-yl)sulfonyl)carbamate], which IC50 is on record?
A: The IC50 was 3.54 nM.

Q: Which IC50 does the source give for `COC(=O)NS(=O)(=O)c1sc(CC(C)C)c(C)c1-c1ccc(Cn2ccnc2C(C)C)cc1` [Compound I-33, Methyl ((5-isobutyl-3-(4-((2-isopropyl-1H-imidazol-1-yl)methyl)phenyl)-4-methylthiophen-2-yl)sulfonyl)carbamate] here?
A: The IC50 was 1.61 nM.

Q: Which IC50 does the source give for `CCCCOC(=O)NS(=O)(=O)c1sc(CC(C)C)cc1-c1ccc(Cn2ccnc2)nc1` [Compound I-6, Butyl ((3-(6-((1H-imidazol-1-yl)methyl)pyridin-3-yl)-5-isobutylthiophen-2-yl)sulfonyl)carbamate] here?
A: The IC50 was 11.4 nM.

Q: `CCCCOC(=O)NS(=O)(=O)c1sc(CC(C)C)c(C)c1-c1ccc(Cn2ccnc2C)cc1` [Compound I-31, Butyl ((5-isobutyl-4-methyl-3-(4-((2-methyl-1H-imidazol-1-yl)methyl)phenyl)thiophen-2-yl)sulfonyl)carbamate] was tested. Which IC50 did it give?
A: Its IC50 is 4.86 nM.

Q: `CCNC(=O)NS(=O)(=O)c1sc(CC(C)C)cc1-c1ccc(Cn2ccnc2C)c(C)c1` [Compound I-22, N-(ethylcarbamoyl)-5-isobutyl-3-(3-methyl-4-((2-methyl-1H-imidazol-1-yl)methyl)phenyl)thiophene-2-sulfonamide] was tested. Which IC50 did it give?
A: Its IC50 is 7.28 nM.

Q: `COC(=O)NS(=O)(=O)c1sc(CC(C)C)cc1-c1ccc(Cn2ccnc2C(C)(C)C)cc1C#N` [Compound I-17, Methyl (3-(4-((2-(tert-butyl)-1H-imidazol-1-yl)methyl)-2-cyanophenyl)-5-isobutylthiophen-2-yl)sulfonylcarbamate] was tested. Which IC50 did it give?
A: The IC50 was 2.09 nM.

Q: Which IC50 does the source give for `Cc1cc(Cn2ccnc2C)ccc1-c1cc(CC(C)C)sc1S(=O)(=O)NC(=O)NCc1ccccn1` [Compound I-19, 5-isobutyl-3-(2-methyl-4-((2-methyl-1H-imidazol-1-yl)methyl)phenyl)-N-((pyridin-2-ylmethyl)carbamoyl)thiophene-2-sulfonamide] here?
A: Its IC50 is 1 nM.

Q: How did the IC50 turn out when `COC(=O)NS(=O)(=O)c1sc(CC(C)C)cc1-c1ccc(Cn2ccnc2C)c(C)c1` [Compound I-21, Methyl ((5-isobutyl-3-(3-methyl-4-((2-methyl-1H-imidazol-1-yl)methyl)phenyl)thiophen-2-yl)sulfonyl)carbamate] was run?
A: The IC50 was 2.73 nM.

Q: `COC(=O)NS(=O)(=O)c1sc(CC(C)C)cc1-c1ccc(Cn2ccnc2C)c(C#N)c1` [Compound I-24, Methyl ((3-(3-cyano-4-((2-methyl-1H-imidazol-1-yl)methyl)phenyl)-5-isobutylthiophen-2-yl)sulfonyl)carbamate] was tested. Which IC50 did it give?
A: Its IC50 is 1.51 nM.

Q: How did the IC50 turn out when `CCc1nccn1Cc1ccc(-c2c(S(=O)(=O)NC(=O)OC)sc(CC(C)C)c2C)cc1` [Compound I-32, Methyl ((3-(4-((2-ethyl-1H-imidazol-1-yl)methyl)phenyl)-5-isobutyl-4-methylthiophen-2-yl)sulfonyl)carbamate] was run?
A: Its IC50 is 1.32 nM.

Q: For `COC(=O)NS(=O)(=O)c1sc(CC(C)C)cc1-c1ccc(Cn2ccnc2C(C)(C)C)cc1C` [Compound I-25, Methyl ((3-(4-((2-(tert-butyl)-1H-imidazol-1-yl)methyl)-2-methylphenyl)-5-isobutylthiophen-2-yl)sulfonyl)carbamate], which IC50 is on record?
A: Its IC50 is 5.65 nM.

Q: With `COC(=O)NS(=O)(=O)c1sc(CC(C)C)c(C)c1-c1ccc(Cn2ccnc2C)c(C)c1` [Compound I-35, Methyl ((5-isobutyl-4-methyl-3-(3-methyl-4-((2-methyl-1H-imidazol-1-yl)methyl)phenyl)thiophen-2-yl)sulfonyl)carbamate] as the compound, how does the IC50 read?
A: The IC50 was 3.4 nM.
